How the values were obtained:
[1] = Bulk density and tap density of crystal forms; format: physicochemical
From the text: The novel crystalline hemihydrate form (form III) of Lamivudine has better flow property and bulk density, which are important parameters for formulation (Table I). [table]

[2] = Flow property (angle of repose); format: physicochemical; settings: procedure of Lachman et al., page 317
[3] = Polymorphic stability when slurried in water; format: physicochemical; settings: slurried in water at ambient temperature for 24 to 48 hours
Description: A suspension of the Lamivudine form-II (5.0 gm) in water (5.0 ml) was stirred at 25° C. for 48 hours. The suspension was cooled and stirred at 10° C. for one hour. The product was filtered and then dried under vacuum at 45° C. for 24 hours. Yield=4.5 gms
A suspension of the Lamivudine form-I (2.0 gm) in water (2.0 ml) was stirred at 25° C. for 24 hours. The suspension was cooled and stirred at 10° C. for one hour. The product was filtered and then dried under vacuum at 45° C. for 24 hours. Yield=1.6 gms

[4] = background, U.S. Pat. No. 5,905,082; cited from earlier work
[5] = Tablet dissolution in 0.1 N HCl, paddle; format: physicochemical; settings: combination tablet, 50 rpm, 900 ml
[6] = Storage stability at 40±2° C. RH 75±5%; format: physicochemical; settings: stored at 40±2° C. RH 75±5%
[7] = Polymorphic stability during milling; format: physicochemical
Bioavailability = format: in vivo; settings: compared with known forms

**Q.** Which “Bulk Density” value [1] does the source give for `Nc1cc[n+](C2CSC(CO)O2)c(=O)[nH]1` (stereo not drawn) [Form I, (2R-cis)-4-amino-1-[2-(hydroxymethyl)-1,3-oxathiolan-5-yl]-2(1H)-pyrimidinone] here?
**A.** 0.46 gm/cc

**Q.** What about the “Tap Density” value [1] of the same compound?
**A.** 0.60 gm/cc

**Q.** What about the “Flow Property (Angle of Repose)” value [2] of the same compound?
**A.** 33.66°

**Q.** What about the “Change of crystal form when slurried in water” value [3] of the same compound?
**A.** get converted to Form III

**Q.** And the “Change of crystal form during milling and formulation operation” value [4]?
**A.** converts to form II

**Q.** With `Nc1cc[n+](C2CSC(CO)O2)c(=O)[nH]1` (stereo not drawn) [Lamivudine, (2R-cis)-4-amino-1-[2-(hydroxymethyl)-1,3-oxathiolan-5-yl]-2(1H)-pyrimidinone] as the compound, how does the “Dissolution (%)” value ([5]; 5 minutes) read?
**A.** 80.9%

**Q.** What about the “Dissolution (%)” value ([5]; 10 minutes) of the same compound?
**A.** 86.2%

**Q.** And the “Dissolution (%)” value ([5]; 20 minutes)?
**A.** 92.0%

**Q.** What about the “Dissolution (%)” value ([5]; 30 minutes) of the same compound?
**A.** 96.0%

**Q.** What about the “Dissolution (%)” value ([5]; 40 minutes) of the same compound?
**A.** 96.7%

**Q.** What does the source list for `Cc1cn([C@H]2C[C@H](N=[N+]=[N-])[C@@H](CO)O2)c(=O)[nH]c1=O` [Zidovudine]?
**A.** Dissolution (%) ([5]; 5 minutes): 81.1%; Dissolution (%) ([5]; 10 minutes): 87.8%; Dissolution (%) ([5]; 20 minutes): 95.2%; Dissolution (%) ([5]; 30 minutes): 100.4%; Dissolution (%) ([5]; 40 minutes): 101.5%

**Q.** What does the source list for `Nc1cc[n+](C2CSC(CO)O2)c(=O)[nH]1` (stereo not drawn) [Form II, (2R-cis)-4-amino-1-[2-(hydroxymethyl)-1,3-oxathiolan-5-yl]-2(1H)-pyrimidinone]?
**A.** Bulk Density [1]: 0.38 gm/cc; Tap Density [1]: 0.55 gm/cc; Flow Property (Angle of Repose) [2]: 32.00°; Change of crystal form when slurried in water [3]: get converted to Form III

**Q.** For `Nc1cc[n+](C2CSC(CO)O2)c(=O)[nH]1` (stereo not drawn) [Form III, (2R-cis)-4-amino-1-[2-(hydroxymethyl)-1,3-oxathiolan-5-yl]-2(1H)-pyrimidinone], which “Bulk Density” value [1] is on record?
**A.** 0.64 gm/cc

**Q.** And the “Tap Density” value [1]?
**A.** 0.83 gm/cc

**Q.** What about the “Flow Property (Angle of Repose)” value [2] of the same compound?
**A.** 32.00°

**Q.** What about the Stability on storage [6] of the same compound?
**A.** stable for more than three months

**Q.** What about the “Change in crystal structure during milling” value [7] of the same compound?
**A.** does not undergo any change in crystal structure during milling

**Q.** What about the Bioavailability (Bioavailability) of the same compound?
**A.** comparable bioavailability

Reference: patent US8158607B2, “Crystalline form of lamivudine” (Lupin Limited, priority 2006, dated 2012)
